Reference: US7250440B2, “(Hydroxyphenyl)-1H-indole-3-carbaldehyde oxime derivatives as estrogenic agents” (Wyeth, priority 2003, dated 2007)
Like-named read-outs stand apart in the source and are kept apart here.

Experiments:
[1] = target: T1, human ERβ (Homo sapiens, UniProt Q92731); assay: Competition with [3H]-17β-estradiol for binding to the ERβ ligand binding domain
T1 construct: made in house; host or cells: E. coli
Protocol: (§1) Representative examples of the invention were evaluated for their ability to compete with 17β-estradiol for both ERα and ERβ. This test procedure provides the methodology for one to determine whether a particular compound binds to the estrogen receptor (and is therefore “estrogenic”) and whether there is selectivity for ERα or ERβ. […] 17β-estradiol is included as a standard reference for comparison. The procedure used is briefly described below. A crude lysate of E. coli expressing the estrogen receptor ligand binding domains D, E, & F) of human ERα or ERβ was prepared. Both receptors and compounds were diluted in 1× Dulbecco's PBS (DPBS) supplemented with 1 mM EDTA. Using a high binding masked microtiter plate, 100 uL of receptor (1 uG/well) was combined with 2 nM [^3H]-17β-estradiol and various concentrations of compound. After between 5 and 15 hours at room temperature, the plates were washed with DPBS/1 mM EDTA and bound radioactivity determined by liquid scintillation counting.

[2] = target: T2, human ERα (Homo sapiens, UniProt P03372); assay: Competition with [3H]-17β-estradiol for binding to the ERα ligand binding domain; conditions: crude E. coli lysate expressing human ERα ligand binding domain; 2 nM [3H]-17β-estradiol; 5-15 hours at room temperature
T2 construct: made in house; host or cells: E. coli
T2 sequence (P03372 311-547 limits assumed): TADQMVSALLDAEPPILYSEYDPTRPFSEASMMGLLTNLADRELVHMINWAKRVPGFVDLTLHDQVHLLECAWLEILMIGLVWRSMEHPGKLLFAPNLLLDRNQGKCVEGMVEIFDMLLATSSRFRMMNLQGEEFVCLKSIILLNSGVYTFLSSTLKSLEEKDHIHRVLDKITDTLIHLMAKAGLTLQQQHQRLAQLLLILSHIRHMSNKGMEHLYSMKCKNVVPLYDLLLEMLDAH
Protocol: as §1

T1 sequence (Q92731 264-498 limits assumed): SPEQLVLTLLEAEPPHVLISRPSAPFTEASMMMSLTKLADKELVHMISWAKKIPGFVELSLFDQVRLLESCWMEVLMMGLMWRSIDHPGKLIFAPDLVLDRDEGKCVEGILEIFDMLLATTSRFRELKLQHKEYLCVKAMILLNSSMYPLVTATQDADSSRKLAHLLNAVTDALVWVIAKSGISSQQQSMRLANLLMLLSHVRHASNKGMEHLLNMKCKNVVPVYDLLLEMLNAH

IC50 ([1]; crude E. coli lysate expressing human ERβ ligand binding domain, 2 nM [3H]-17β-estradiol, 5-15 hours at room temperature, read-out: ERβ) | SMILES | melting point | IC50 [1] | IC50 [2]
8 nM | Cc1c(/C=N/O)c2ccccc2n1-c1ccc(O)c(F)c1 [Example 10, 1-(3-Fluoro-4-hydroxyphenyl)-2-methyl-1H-indole-3-carbaldehyde oxime] | 182 to 184 °C |  | 
 | Cc1c(/C=N/O)c2cc(Br)ccc2n1-c1ccc(O)cc1 [Example 7, 5-Bromo-1-(4-hydroxyphenyl)-2-methyl-1H-indole-3-carbaldehyde oxime] | 209 to 211 °C | 93.5 nM | 235 nM
 | Cc1c(/C=N/O)c2cc(F)ccc2n1-c1ccc(O)cc1 [Example 5, 5-Fluoro-1-(4-hydroxyphenyl)-2-methyl-1H-indole-3-carbaldehyde oxime] | 162 to 163 °C | 6.2 nM | 91 nM
 | Cc1c(/C=N/O)c2cc(Cl)ccc2n1-c1ccc(O)cc1 [Example 6, 5-Chloro-1-(4-hydroxyphenyl)-2-methyl-1H-indole-3-carbaldehyde oxime] | 212 to 213 °C | 29 nM | 145 nM
 | O/N=C/c1cn(-c2ccc(O)cc2)c2ccccc12 [Example 9, 1-(4-Hydroxyphenyl)-1H-indole-3-carbaldehyde oxime] | 95 to 97 °C |  | 
 | Cc1c(/C=N/O)c2ccccc2n1-c1ccc(O)cc1 [Example 4, 1-(4-Hydroxyphenyl)-2-methyl-1H-indole-3-carbaldehyde oxime] | 171 to 173 °C |  | 
 | O/N=C1\CCCc2c1c1ccccc1n2-c1ccc(O)cc1 [Example 8, (4E)-9-(4-Hydroxyphenyl)-1,2,3,9-tetrahydro-4H-carbazol-4-one oxime] | 227 to 229 °C | 10 nM | 153 nM
